Common to all, as to assay type: functional
The subject of experiment [1] is Onchocerca lienalis. The experiment in a line: MMV: Percent motility assay at a compound concentration of 1.25e-5 M. Activity score legend: 3: Active, 2: Moderately active; 1: Inactive, 0: Toxic. To be noted: at 12.5 µM.
In experiment [2] the test system is Onchocerca lienalis. Put plainly: MMV: Percent motility assay at a compound concentration of 3.1e-6 M. Activity score legend: 3: Active, 2: Moderately active; 1: Inactive, 0: Toxic. To be noted: at 3.1 µM.
The test system of experiment [3] is Onchocerca lienalis. The experiment in a line: MMV: Percent motility assay at a compound concentration of 1.9e-7 M. Activity score legend: 3: Active, 2: Moderately active; 1: Inactive, 0: Toxic. To be noted: at 0.19 µM.
The subject of experiment [4] is Onchocerca lienalis. Put plainly: MMV: Percent motility assay at a compound concentration of 7.8e-7 M. Activity score legend: 3: Active, 2: Moderately active; 1: Inactive, 0: Toxic. The following applies: at 0.78 µM.

The structures appear in SMILES notation.

Our source for the Motility values is ChEMBL document CHEMBL3137381, “MMV Box Onchocerca lienalis screening set”.

As to `COc1ccc(-c2cc3c(nn2)-c2ccccc2C3=O)cc1`, the Motility in the experiment on Onchocerca lienalis [1], with Onchocerca lienalis [2], with Onchocerca lienalis [3] and in the experiment on Onchocerca lienalis [4] was 100% each time.
Regarding `CCOC(=O)C1=C(C)N=c2sc(=Cc3ccccc3O)c(=O)n2C1c1ccc(OC)c2ccccc12` (stereo not given), the Motility in the experiment on Onchocerca lienalis [1], with Onchocerca lienalis [2], with Onchocerca lienalis [3] and in the experiment on Onchocerca lienalis [4] was 100% throughout.
On to `COc1ccc(CN2CCCC(C(=O)c3ccc(C(F)(F)F)cc3)C2)c(O)c1` (stereo not given), for which the Motility with Onchocerca lienalis [1], in the experiment with Onchocerca lienalis [2], in the experiment on Onchocerca lienalis [3] and in the experiment on Onchocerca lienalis [4] was 100% in each case.
Take `O=C(NC1CCCCC1)C(c1cccs1)N(CCc1ccccc1)C(=O)c1ccco1` (stereo not given): the Motility with Onchocerca lienalis [1], in the experiment on Onchocerca lienalis [2], with Onchocerca lienalis [3] and with Onchocerca lienalis [4] was 100% in each case.
As to `Cl.c1ccc2c(NCCCCCCNc3c4c(nc5ccccc35)CCCC4)c3c(nc2c1)CCCC3`, the Motility in the experiment on Onchocerca lienalis [1], in the experiment on Onchocerca lienalis [2], in the experiment with Onchocerca lienalis [3] and in the experiment on Onchocerca lienalis [4] was 100% in each case.
Regarding `Nc1ccc(-c2nc3cc(Cc4ccc5[nH]c(-c6ccc(N)cc6)nc5c4)ccc3[nH]2)cc1`, the Motility in the experiment on Onchocerca lienalis [1] was found to be 0%; with Onchocerca lienalis [2], 66.66%; in the experiment on Onchocerca lienalis [3] it was 100%; with Onchocerca lienalis [4], 100%.
For the molecule `CCCCOC(=O)c1ccc(Nc2cc(C)nc3ccc(OC)cc23)cc1`, the Motility in the experiment on Onchocerca lienalis [1], with Onchocerca lienalis [2], with Onchocerca lienalis [3] and with Onchocerca lienalis [4] was 100% throughout.
Consider `N=c1c2ccccc2nnn1-c1cccc(C(F)(F)F)c1`, for which the Motility in the experiment with Onchocerca lienalis [1], in the experiment with Onchocerca lienalis [2], in the experiment with Onchocerca lienalis [3] and with Onchocerca lienalis [4] was 100% in each case.
Take `COc1cc(-c2nc(-c3ccc(Sc4ccccc4)cc3)c(-c3ccccc3)[nH]2)cc(OC)c1O`: the Motility with Onchocerca lienalis [1], in the experiment on Onchocerca lienalis [2], in the experiment on Onchocerca lienalis [3] and with Onchocerca lienalis [4] was 100% throughout.
In the case of `O=c1cc(NC2CCN(CCCc3ccccc3)CC2)c2cc(Cl)ccc2o1`, the Motility with Onchocerca lienalis [1], in the experiment on Onchocerca lienalis [2], in the experiment with Onchocerca lienalis [3] and in the experiment with Onchocerca lienalis [4] was 100% in each case.
With `COc1ccc(C2NCCc3c2[nH]c2ccccc32)cc1CN1CCN(c2ccc(F)cc2)CC1.Cl` (stereo not given), the Motility in the experiment with Onchocerca lienalis [1], in the experiment with Onchocerca lienalis [2], in the experiment on Onchocerca lienalis [3] and in the experiment with Onchocerca lienalis [4] was 100% in each case.
Turning to `OC(Cn1nnc2ccccc21)Cn1c2ccc(Br)cc2c2cc(Br)ccc21` (stereo not given), the Motility in the experiment on Onchocerca lienalis [1], in the experiment on Onchocerca lienalis [2], with Onchocerca lienalis [3] and with Onchocerca lienalis [4] was 100% throughout.
As for `CCOc1ccc(-n2cc(-c3ccccc3)c3c(SCc4cc(C)ccc4C)ncnc32)cc1`, the Motility with Onchocerca lienalis [1], in the experiment on Onchocerca lienalis [2], in the experiment on Onchocerca lienalis [3] and in the experiment with Onchocerca lienalis [4] was 100% in each case.
Take `Cc1ccc(C)c(Cn2c(N3CCC(C(=O)NCc4cccs4)CC3)nc3ccccc32)c1`: the Motility with Onchocerca lienalis [1], in the experiment on Onchocerca lienalis [2], in the experiment with Onchocerca lienalis [3] and in the experiment with Onchocerca lienalis [4] was 100% throughout.
Take `Cc1ccccc1OCCSc1nc2ccc(NC(=O)c3cccs3)cc2s1`: the Motility with Onchocerca lienalis [1], with Onchocerca lienalis [2], with Onchocerca lienalis [3] and in the experiment on Onchocerca lienalis [4] was 100% throughout.
Consider `CC1CCN(Cc2c(O)ccc3cc(-c4nc5ccccc5s4)c(=O)oc23)CC1`, for which the Motility in the experiment with Onchocerca lienalis [1], with Onchocerca lienalis [2], with Onchocerca lienalis [3] and with Onchocerca lienalis [4] was 100% in each case.
In the case of `Cc1ccc2cc3c(N)c4c(C)ccc(C)c4nc3nc2c1`, the Motility with Onchocerca lienalis [1], in the experiment with Onchocerca lienalis [2], in the experiment with Onchocerca lienalis [3] and with Onchocerca lienalis [4] was 100% in each case.
As for `COc1ccc(C2C(C(=O)Nc3cccc(OC)c3)c3ccccc3C(=O)N2C2CCCCC2)cc1` (stereo not given), the Motility in the experiment on Onchocerca lienalis [1], with Onchocerca lienalis [2], with Onchocerca lienalis [3] and in the experiment on Onchocerca lienalis [4] was 100% in each case.
In the case of `c1ccc2c(NCCc3c[nH]c4ccccc34)c3ccccc3nc2c1`, the Motility in the experiment on Onchocerca lienalis [1], with Onchocerca lienalis [2], in the experiment on Onchocerca lienalis [3] and in the experiment on Onchocerca lienalis [4] was 100% throughout.
With `O=C(Nc1ccc(C23CC4CC(CC(c5ccccc5)(C4)C2)C3)cc1)c1cccs1`, the Motility in the experiment with Onchocerca lienalis [1], with Onchocerca lienalis [2], in the experiment with Onchocerca lienalis [3] and with Onchocerca lienalis [4] was 100% in each case.
On to `CCN(CC)CCCNc1ccnc2cc3ccccc3cc12`, for which the Motility in the experiment on Onchocerca lienalis [1], in the experiment on Onchocerca lienalis [2], in the experiment on Onchocerca lienalis [3] and in the experiment on Onchocerca lienalis [4] was 100% in each case.
Take `CCOC(=O)c1cnc2c(C)cccc2c1Nc1ccc(C(C)=O)cc1`: the Motility with Onchocerca lienalis [1], in the experiment with Onchocerca lienalis [2], in the experiment on Onchocerca lienalis [3] and in the experiment with Onchocerca lienalis [4] was 100% each time.
For `O=C(Nc1ccc(-c2nc3cc4ccccc4cc3[nH]2)cc1)c1cccc(Br)c1`, the Motility in the experiment with Onchocerca lienalis [1], with Onchocerca lienalis [2], in the experiment with Onchocerca lienalis [3] and in the experiment with Onchocerca lienalis [4] was 100% throughout.
On to `Cc1ccc(C2CC(C(F)(F)F)n3nc(C(=O)N4CCN(C(c5ccccc5)c5ccccc5)CC4)cc3N2)cc1` (stereo not given), for which the Motility in the experiment with Onchocerca lienalis [1], in the experiment with Onchocerca lienalis [2], in the experiment on Onchocerca lienalis [3] and in the experiment with Onchocerca lienalis [4] was 100% each time.
Consider `Cc1ccc2nc(C)cc(Nc3cccc(C(F)(F)F)c3)c2c1.Cl`, for which the Motility with Onchocerca lienalis [1], in the experiment on Onchocerca lienalis [2], in the experiment with Onchocerca lienalis [3] and in the experiment with Onchocerca lienalis [4] was 100% each time.
Regarding `COc1cccc(C(=O)NC(c2ccc(C)cc2)c2cc(Cl)c3cccnc3c2O)c1` (stereo not given), the Motility stood at 0% with Onchocerca lienalis [1], 33.33% in the experiment with Onchocerca lienalis [2], 100% with Onchocerca lienalis [3] and 100% with Onchocerca lienalis [4].
Regarding `COc1ccc(C(O)(CCC(C)C)C(CN2CCOCC2)c2ccc(Cl)cc2)cc1.Cl` (stereo not given), the Motility in the experiment with Onchocerca lienalis [1], in the experiment with Onchocerca lienalis [2], with Onchocerca lienalis [3] and in the experiment with Onchocerca lienalis [4] was 100% each time.
As to `COc1ccc(-c2cc(=O)oc3c4c(ccc23)OCN(Cc2ccc(F)cc2)C4)cc1`, the Motility in the experiment on Onchocerca lienalis [1], with Onchocerca lienalis [2], in the experiment on Onchocerca lienalis [3] and in the experiment on Onchocerca lienalis [4] was 100% each time.
Turning to `CCCOCc1cc(CN2CCN(c3cccc(Cl)c3)CC2)c(O)c2ncccc12`, the Motility with Onchocerca lienalis [1], in the experiment on Onchocerca lienalis [2], in the experiment on Onchocerca lienalis [3] and in the experiment on Onchocerca lienalis [4] was 100% each time.
With `CCOc1ccc2c(c1)CN(Cc1ccc(Cl)cc1)CO2`, the Motility in the experiment with Onchocerca lienalis [1], in the experiment on Onchocerca lienalis [2], with Onchocerca lienalis [3] and in the experiment with Onchocerca lienalis [4] was 100% each time.
Take `COc1ccc(C(=O)NC(c2ccccc2Cl)c2cc(Cl)c3cccnc3c2O)cc1` (stereo not given): the Motility in the experiment with Onchocerca lienalis [1], in the experiment on Onchocerca lienalis [2], in the experiment with Onchocerca lienalis [3] and with Onchocerca lienalis [4] was 100% each time.
For the molecule `CCCc1c(C)nc2ccc(Br)cc2c1O`, the Motility in the experiment on Onchocerca lienalis [1], with Onchocerca lienalis [2], with Onchocerca lienalis [3] and in the experiment on Onchocerca lienalis [4] was 100% throughout.
With `COc1ccc(CCNC(=O)c2cc(S(=O)(=O)N3CC(C)CC(C)C3)ccc2Sc2ccc(F)cc2)cc1OC` (stereo not given), the Motility in the experiment with Onchocerca lienalis [1], in the experiment on Onchocerca lienalis [2], with Onchocerca lienalis [3] and with Onchocerca lienalis [4] was 100% throughout.
Take `Cc1ccc(F)cc1NC(=O)c1cc(Cl)ccc1Nc1ccccc1`: the Motility in the experiment on Onchocerca lienalis [1], with Onchocerca lienalis [2], in the experiment with Onchocerca lienalis [3] and in the experiment with Onchocerca lienalis [4] was 100% each time.
Take `CCOc1ccc(Nc2c3ccccc3nc3ccccc23)cc1.Cl`: the Motility in the experiment with Onchocerca lienalis [1], in the experiment with Onchocerca lienalis [2], in the experiment with Onchocerca lienalis [3] and in the experiment on Onchocerca lienalis [4] was 100% each time.
Consider `CCCCCCC(O)(c1ccc(F)cc1)C(CN1CCOCC1)c1ccccc1.Cl` (stereo not given), for which the Motility in the experiment with Onchocerca lienalis [1], in the experiment on Onchocerca lienalis [2], in the experiment on Onchocerca lienalis [3] and in the experiment with Onchocerca lienalis [4] was 100% each time.
In the case of `COc1cc(OC)cc(N2C(=O)N(Cc3ccc(C(C)(C)C)cc3)c3ccccc3S2(=O)=O)c1`, the Motility is 33.33% in the experiment with Onchocerca lienalis [1], 100% with Onchocerca lienalis [2], 100% in the experiment with Onchocerca lienalis [3] and 100% in the experiment on Onchocerca lienalis [4].
On to `CCOc1c(Br)cc(C2C(C(=O)OC)=CN(C)C=C2C(=O)OC)cc1OC`, for which the Motility in the experiment with Onchocerca lienalis [1], in the experiment on Onchocerca lienalis [2], in the experiment on Onchocerca lienalis [3] and in the experiment with Onchocerca lienalis [4] was 100% in each case.
Consider `COc1ccccc1N1C(=N)SC(=Cc2ccc(OCc3ccccc3F)cc2)C1=O`, for which the Motility in the experiment on Onchocerca lienalis [1], in the experiment with Onchocerca lienalis [2], with Onchocerca lienalis [3] and with Onchocerca lienalis [4] was 100% each time.
With `CCOC(=O)c1c[nH]c2c(CC)cccc2c1=O`, the Motility in the experiment with Onchocerca lienalis [1], with Onchocerca lienalis [2], in the experiment on Onchocerca lienalis [3] and with Onchocerca lienalis [4] was 100% each time.
